Measurements published in patent publication US20250195536A1, “BICYCLOOCTANE KRAS INHIBITORS” (Incyte Corporation, priority 2023, published 2025).

Legend:
KRAS G12D = KRAS G12D (Homo sapiens, UniProt P01116, G12D); assay: GDP-GTP exchange assay (KRAS G12D); format: biochemical; details: bodipy-GDP/GppNHp exchange with SOS1; 4 h pre-incubation, 2 h reaction;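 further: one dagger IC50 up to 100 nM and two daggers above 100 nM up to 1 μM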
Summary of the method: (§1)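 Bodipy-GDP-loaded KRAS (2.5 nM final) was pre-incubated 4 h at r.t. with inhibitor in Hepes pH 7.5 buffer with MgCl2, then exchange started with GppNHp (500 μM) and SOS1 (150 nM) final. Fluorescence (ex 485/em 520 nm) read after 2 h for G12D, 3 h for G12V; IC50 from four-parameter logistic fit.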

KRAS G12V = KRAS G12V (Homo sapiens, UniProt P01116, G12V); assay: GDP-GTP exchange assay (KRAS G12V); format: biochemical; details: bodipy-GDP/GppNHp exchange with SOS1; 3 h incubation after GppNHp-SOS1;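 further: one dagger IC50 up to 100 nM and two daggers above 100 nM up to 1 μM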
Summary of the method: as §1

[1] = Caco2 assay (permeability, Papp A-B); format: in vitro ADME; details: human, Caco-2, absorptive direction (A-B), 50 μM test compound, 4% BSA in receiver
Summary of the method: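 Caco-2 monolayers, 22-25 days on Transwells, TEER 300 Ω·cm^2, dosed apically with 50 μM compound in HBSS; basolateral HBSS with 4% BSA. 120 min at 37 °C, samples quantified by LCMS; Papp (A-B) from receiver-side cumulative flux slope, donor volume, surface area and initial donor amount.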

Sequence of KRAS G12D (P01116 1-188 isoform P01116-2 G12D): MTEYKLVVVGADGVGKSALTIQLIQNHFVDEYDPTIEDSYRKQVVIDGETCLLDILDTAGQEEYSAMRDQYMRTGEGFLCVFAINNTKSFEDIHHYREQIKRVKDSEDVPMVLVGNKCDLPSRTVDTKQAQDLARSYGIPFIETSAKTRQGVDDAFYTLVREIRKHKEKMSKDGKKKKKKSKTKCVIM
Sequence of KRAS G12V (P01116 1-188 isoform P01116-2 G12V): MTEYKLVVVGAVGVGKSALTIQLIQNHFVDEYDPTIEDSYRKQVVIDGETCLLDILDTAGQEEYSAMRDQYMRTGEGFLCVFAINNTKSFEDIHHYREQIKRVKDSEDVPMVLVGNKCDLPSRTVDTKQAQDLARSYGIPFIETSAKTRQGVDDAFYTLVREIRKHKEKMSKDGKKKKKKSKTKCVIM

G12D_exchange (KRAS_G12D exchange assay IC50) (KRAS G12D) | G12V_exchange (KRAS_G12V exchange assay IC50) (KRAS G12V) | Papp A→B at 120 min, 50 μM [1] [×10⁻⁶ cm/s] | SMILES
† | † | ≤ 0.5 | Cc1nc2c(F)c(-c3cccc(Cl)c3Cl)c(CCC#N)cc2c2c1cc([C@H]1[C@@H]3COC(=O)[C@@H](C3)N1C(=O)C1CC1)n2[C@H]1[C@H]2CN[C@@H]1C2 (atropisomer, axis not shown; (Ra)) [Example 116, 3-((Ra)-1-((1R,4R,5S)-2-Azabicyclo[2.1.1]hexan-5-yl)-2-((1R,5R,7R)-6-(cyclopropanecarbonyl)-4-oxo-3-oxa-6-azabicyclo[3.2.1]octan-7-yl)-7-(2,3-dichlorophenyl)-6-fluoro-4-methyl-1H-pyrrolo[3,2-c]quinolin-8-yl)propanenitrile]
† | † | > 1 | Cc1nc2c(F)c(-c3cccc(Cl)c3Cl)c(CCC#N)cc2c2c1cc([C@H]1CCN(c3ccccc3)CCN1C(=O)C1CC1)n2[C@H]1[C@H]2CN[C@@H]1C2 (atropisomer, axis not shown; (Ra)) [Example 117, 3-((Ra)-1-((1R,4R,5S)-2-Azabicyclo[2.1.1]hexan-5-yl)-2-((R)-4-(cyclopropanecarbonyl)-1-phenyl-1,4-diazepan-5-yl)-7-(2,3-dichlorophenyl)-6-fluoro-4-methyl-1H-pyrrolo[3,2-c]quinolin-8-yl)propanenitrile]
† | † | ≤ 0.5 | Cc1nc2c(F)c(-c3cccc(Cl)c3Cl)c(CCC#N)cc2c2c1cc([C@H]1C[C@H]3C[C@H](CN3c3ccccn3)N1C(=O)C1CC1)n2[C@H]1[C@H]2CN[C@@H]1C2 (atropisomer, axis not shown; (Ra)) [Example 118, 3-((Ra)-1-((1R,4R,5S)-2-Azabicyclo[2.1.1]hexan-5-yl)-2-((1R,3R,5R)-2-(cyclopropanecarbonyl)-6-(pyridin-2-yl)-2,6-diazabicyclo[3.2.1]octan-3-yl)-7-(2,3-dichlorophenyl)-6-fluoro-4-methyl-1H-pyrrolo[3,2-c]quinolin-8-yl)propanenitrile]
† | † | ≤ 0.5 | Cc1nc2c(F)c(-c3cccc(Cl)c3Cl)c(CCC#N)cc2c2c1cc([C@H]1C[C@H]3C[C@H](CN3C(=O)c3ccccc3)N1C(=O)C1CC1)n2[C@H]1[C@H]2CN[C@@H]1C2 (atropisomer, axis not shown; (Ra)) [Example 119, 3-((Ra)-2-((1R,3R,5R)-6-Benzoyl-2-(cyclopropanecarbonyl)-2,6-diazabicyclo[3.2.1]octan-3-yl)-1-((1R,4R,5S)-2-azabicyclo[2.1.1]hexan-5-yl)-7-(2,3-dichlorophenyl)-6-fluoro-4-methyl-1H-pyrrolo[3,2-c]quinolin-8-yl)propanenitrile]
† | † | ≤ 0.5 | COC(=O)N1[C@@H]2C[C@@H](CN(c3cc(C(C)(F)F)ncn3)C2)[C@@H]1c1cc2c(C)nc3c(F)c(-c4cccc(Cl)c4Cl)c(CCC#N)cc3c2n1[C@H]1[C@H]2CN[C@@H]1C2 (atropisomer, axis not shown; (Ra)) [Example 124, Methyl (1 S,5R,7R)-7-((Ra)-1-((1R,4R,5S)-2-azabicyclo[2.1.1]hexan-5-yl)-8-(2-cyanoethyl)-7-(2,3-dichlorophenyl)-6-fluoro-4-methyl-1H-pyrrolo[3,2-c]quinolin-2-yl)-3-(6-(1,1-difluoroethyl)pyrimidin-4-yl)-3,6-diazabicyclo[3.2.1]octane-6-carboxylate]
† | † | ≤ 0.5 | Cc1nc2c(F)c(-c3cccc(Cl)c3Cl)c(CCC#N)cc2c2c1cc([C@H]1[C@H]3C[C@H](CN(c4ccc(C(F)(F)F)cn4)C3)N1C(=O)C1CC1)n2[C@H]1[C@H]2CN[C@@H]1C2 [Example 30, 3-((Ra)-1-((1R,4R,5S)-2-Azabicyclo[2.1.1]hexan-5-yl)-2-((1 S,5R,7R)-6-(cyclopropanecarbonyl)-3-(5-(trifluoromethyl)pyridin-2-yl)-3,6-diazabicyclo[3.2.1]octan-7-yl)-7-(2,3-dichlorophenyl)-6-fluoro-4-methyl-1H-pyrrolo[3,2-c]quinolin-8-yl)propanenitrile]
† | † | ≤ 0.5 | Cc1nc2c(F)c(-c3cccc(Cl)c3Cl)c(CCC#N)cc2c2c1cc([C@H]1[C@H]3C[C@H](CN(c4ccnc(C(=O)N(C)C)c4)C3)N1C(=O)C1CC1)n2[C@H]1[C@H]2CN[C@@H]1C2 [Example 64, 4-((1S,5R,7R)-7-((Ra)-1-((1R,4R,5S)-2-azabicyclo[2.1.1]hexan-5-yl)-8-(2-cyanoethyl)-7-(2,3-dichlorophenyl)-6-fluoro-4-methyl-1H-pyrrolo[3,2-c]quinolin-2-yl)-6-(cyclopropanecarbonyl)-3,6-diazabicyclo[3.2.1]octan-3-yl)-N,N-dimethylpicolinamide]
